In one assay the target is T1, GST-ALK5 (Homo sapiens, UniProt P36897).
T1 sequence (P36897 34-503): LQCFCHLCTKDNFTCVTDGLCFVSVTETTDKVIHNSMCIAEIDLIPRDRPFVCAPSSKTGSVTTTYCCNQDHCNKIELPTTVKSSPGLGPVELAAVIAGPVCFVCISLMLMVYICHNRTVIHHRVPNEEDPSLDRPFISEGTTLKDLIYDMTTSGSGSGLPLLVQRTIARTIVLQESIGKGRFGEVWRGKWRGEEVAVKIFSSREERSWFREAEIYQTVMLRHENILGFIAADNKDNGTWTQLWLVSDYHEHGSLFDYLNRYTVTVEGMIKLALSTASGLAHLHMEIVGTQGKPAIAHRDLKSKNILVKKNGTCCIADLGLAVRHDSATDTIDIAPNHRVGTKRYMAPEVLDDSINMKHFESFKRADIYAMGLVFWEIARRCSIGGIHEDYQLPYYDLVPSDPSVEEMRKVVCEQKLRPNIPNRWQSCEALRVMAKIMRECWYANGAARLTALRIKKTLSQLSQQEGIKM
The assay can be described thus: In-vitro (enzyme) kinase assay, 384-well flashplate (Example 36). It is filed as biochemical. The settings on record: GST-ALK5, GST-SMAD2 substrate, 3 mM ATP, 30° C., 45 min; read-out: TβR activity (Example 36). The procedure: In-vitro (Enzyme) Assay for Determination of the Efficacy of Inhibitors of the Inhibition of TGF-beta-Mediated Effects
The kinase assay was carried out as 384-well flashplate assay. 31.2 nM of GST-ALK5, 439 nM of GST-SMAD2 and 3 mM of ATP (with 0.3 μCi of ^33P-ATP/well) were incubated in a total volume of 35 μl (20 mM of HEPES, 10 mM of MgCl2, 5 mM of MnCl2, 1 mM of DTT, 0.1 of BSA, pH 7.4) without or with test substance (5-10 concentrations) at 30° C. for 45 min. The reaction was stopped using 25 μl of 200 mM EDTA solution, filtered with suction at room temperature after 30 min, and the wells were washed with 3 times 100 μl of 0.9% NaCl solution. Radioactivity was measured in the TopCount. The IC50 values were calculated using RS1.

In assay [1] the test system is TGF-beta-induced phosphorylation of Smad2 and Smad3 in Mv1-Lu cells. The assay can be described thus: Inhibition of Smad2/3 phosphorylation in Mv1Lu cells (Example 35A). It is filed as cell-based, mink Mustela vison. The settings on record: Neogale vison, read-out: TβR activity (Example 35A). The procedure: Inhibition of Smad2/3 Phosphorylation in Mv1Lu Cells by TGF-bta Receptor I Kinase Inhibitors
This assay was used to determine the inhibitory potency of compounds on TGF-beta-induced phosphorylation of Smad2 (Ser465/467) and Smad3 (Ser423/425). Mv1-Lu cells (lung epithelial cell line from mink Mustela vison; ATCC number: CCL-64) were seeded in DMEM (Invitrogen) supplemented with 10% fetal bovine serum (Pan Biotech) at a defined cell density in 24-well or 96-well plates (24-well plate: 1.5×10^5 cells per well; 96-well plate: 4×10^4 cells per well). Cell cultures were incubated in DMEM at 37° C. and 10% CO2. On the next day, the medium was replaced and cells were serum-starved for 16-20 hours. The following day, serial dilutions of compounds were added to the wells, pre-incubated for 1.5 hrs before recombinant TGF-beta 1 ligand (final concentration 5 ng/ml; R&D systems) was added. After one hour of ligand stimulation, lysates were prepared and analyzed using an enzyme-linked immunosorbent assay kit (PathScan Phospho-Smad2 Kit, Cell Signaling Technologies). The ELISA detects phosphorylated Smad2 as well as phosphorylated Smad3 with the phospho-specific antibody. TGF-beta stimulated cells and unstimulated cells served as positive and negative controls (100% and background control). The concentration of the vehicle DMSO was kept constant at 0.2% (v/v) in all wells. Dose-response relationships were fitted using curve fitting algorithms of the RS1 statistics software package (Brooks Automation Inc. RS/1—Statistical Tools Handbook. Release 6.2) to determine the concentration at which half-maximal inhibition (IC50) of Smad2/3 phosphorylation was achieved.

The mark [2] stands for this setting: Mv1-Lu cells, TGF-beta 1 5 ng/ml, phospho-Smad2/3 ELISA.

pIC50: −log10 of the molar value. Counter-ions that a name gives are not always drawn. Like-named read-outs stand apart in the source and are kept apart here.

In the case of `OCCn1cc(-c2cncc(-c3cc(-c4cc(Cl)ccc4F)nc4ncccc34)c2)cn1` [compound 91, 2-(4-{5-[2-(5-Chloro-2-fluoro-phenyl)-[1,8]naphthyridin-4-yl]-pyridin-3-yl}-pyrazol-1-yl)-ethanol], the pIC50 (at GST-ALK5; in assay [1] (setting [2])) was more than 7.00 in each case.
Take `Fc1ccc(Cl)cc1-c1cc(-c2cncc(-c3cccc4c3CCNC4)c2)c2cccnc2n1` [compound 168, 2-(5-Chloro-2-fluoro-phenyl)-4-[5-(1,2,3,4-tetrahydro-isoquinolin-5-yl)-pyridin-3-yl]-[1,8]naphthyridine]: the pIC50 (at GST-ALK5; in assay [1] (setting [2])) was 5.00 to 6.00 each time.
For `Cn1cc(-c2cncc(-c3cc(-c4ccc(F)cc4)nc4ncccc34)c2)cn1` [compound 16, 2-(4-Fluoro-phenyl)-4-[5-(1-methyl-1H-pyrazol-4-yl)-pyridin-3-yl]-[1,8]naphthyridine], the pIC50 on GST-ALK5 is 6.00 to 7.00; in assay [1] (setting [2]), 5.00 to 6.00.
For `Fc1ccc(Cl)cc1-c1cc(-c2cncc(-c3ccc4c(c3)NCCC4)c2)c2cccnc2n1` [compound 151, 2-(5-Chloro-2-fluoro-phenyl)-4-[5-(1,2,3,4-tetrahydro-quinolin-7-yl)-pyridin-3-yl]-[1,8]naphthyridine], the pIC50 at GST-ALK5 is 6.00 to 7.00; in assay [1] (setting [2]) it was more than 7.00.
Turning to `CN1CC[C@H](n2cc(-c3cncc(-c4cc(-c5cc(Cl)ccc5F)nc5ncccc45)c3)cn2)C1` [compound 68, 2-(5-Chloro-2-fluoro-phenyl)-4-{5-[1-((S)-1-methyl-pyrrolidin-3-yl)-1H-pyrazol-4-yl]-pyridin-3-yl}-[1,8]naphthyridine], the pIC50 (on GST-ALK5; in assay [1] (setting [2])) was more than 7.00 in each case.
For `CN1CCC(c2nc(-c3cncc(-c4cc(-c5cc(Cl)ccc5F)nc5ncccc45)c3)no2)CC1` [compound 61, 2-(5-Chloro-2-fluoro-phenyl)-4-{5-[5-(1-methyl-piperidin-4-yl)-[1,2,4]oxadiazol-3-yl]-pyridin-3-yl}-[1,8]naphthyridine], the pIC50 is more than 7.00 on GST-ALK5 and 6.00 to 7.00 in assay [1] (setting [2]).
`Cn1ccc2cc(-c3cncc(-c4cc(-c5cc(Cl)ccc5F)nc5ncccc45)c3)ccc21` [compound 150, 2-(5-Chloro-2-fluoro-phenyl)-4-[5-(1-methyl-1H-indol-5-yl)-pyridin-3-yl]-[1,8]naphthyridine]: the pIC50 was 6.00 to 7.00 at GST-ALK5 and more than 7.00 in assay [1] (setting [2]).
In the case of `CN1CCN(c2cccc(-c3cncc(-c4cc(-c5cc(Cl)ccc5F)nc5ncccc45)c3)c2)CC1` [compound 116, 2-(5-Chloro-2-fluoro-phenyl)-4-{5-[3-(4-methyl-piperazin-1-yl)-phenyl]-pyridin-3-yl}-[1,8]naphthyridine], the pIC50 (on GST-ALK5; in assay [1] (setting [2])) was more than 7.00 in each case.
Turning to `Fc1ccc(Cl)cc1-c1cc(-c2cncc(-c3ccc4c(c3)CCN4)c2)c2cccnc2n1` [compound 154, 2-(5-Chloro-2-fluoro-phenyl)-4-[5-(2,3-dihydro-1H-indol-5-yl)-pyridin-3-yl]-[1,8]naphthyridine], the pIC50 on GST-ALK5 is 6.00 to 7.00; in assay [1] (setting [2]) it was 5.00 to 6.00.
Consider `Fc1ccc(Cl)cc1-c1cc(-c2ccc(-c3ccccc3)nc2)c2cccnc2n1` [compound 5599, 2-(5-Chloro-2-fluoro-phenyl)-4-(6-phenyl-pyridin-3-yl)-[1,8]naphthyridine], for which the pIC50 (at GST-ALK5; in assay [1] (setting [2])) was less than 5.00 in each case.
Consider `Nc1ncc(-c2cnn(C3CCNCC3)c2)cc1-c1cc(-c2cc(Cl)ccc2F)nc2ncccc12` [compound 13, 3-[2-(5-Chloro-2-fluoro-phenyl)-[1,8]naphthyridin-4-yl]-5-(1-piperidin-4-yl-1H-pyrazol-4-yl)-pyridin-2-ylamine dihydrochloride], for which the pIC50 (at GST-ALK5; in assay [1]) was more than 7.00 in each case.
As for `Fc1ccc(Cl)cc1-c1cc(-c2cncc(-c3cccnc3)c2)c2cccnc2n1` [compound 104, 4-[3,3′]Bipyridinyl-5-yl-2-(5-chloro-2-fluoro-phenyl)-[1,8]naphthyridine], the results for the pIC50 (on GST-ALK5; in assay [1] (setting [2])) were more than 7.00 and 6.00 to 7.00, respectively.
Consider `CN1CCC(n2cc(-c3cncc(-c4cc(-c5cc(F)ccc5F)nc5ncccc45)c3)cn2)CC1` [compound 35, 2-(2,5-Difluoro-phenyl)-4-{5-[1-(1-methyl-piperidin-4-yl)-1H-pyrazol-4-yl]-pyridin-3-yl}-[1,8]naphthyridine], for which the pIC50 (on GST-ALK5; in assay [1] (setting [2])) was more than 7.00 throughout.
Turning to `CN1CCc2ccc(-c3cncc(-c4cc(-c5cc(Cl)ccc5F)nc5ncccc45)c3)cc2C1` [compound 163, 2-(5-Chloro-2-fluoro-phenyl)-4-[5-(2-methyl-1,2,3,4-tetrahydro-isoquinolin-7-yl)-pyridin-3-yl]-[1,8]naphthyridine], the pIC50 (at GST-ALK5; in assay [1] (setting [2])) was more than 7.00 throughout.
`Nc1ccc(-c2cncc(-c3cc(-c4cc(Cl)ccc4F)nc4ncccc34)c2)cn1` [compound 169, 5′-[2-(5-Chloro-2-fluoro-phenyl)-[1,8]naphthyridin-4-yl]-[3,3′]bipyridinyl-6-ylamine]: the values for the pIC50 (at GST-ALK5; in assay [1] (setting [2])) were more than 7.00 and 6.00 to 7.00, respectively.
Consider `CN1CC[C@H](n2cc(-c3cncc(-c4cc(-c5ccccc5F)nc5ncccc45)c3)cn2)C1` [compound 69, 2-(2-Fluoro-phenyl)-4-{5-[1-((S)-1-methyl-pyrrolidin-3-yl)-1H-pyrazol-4-yl]-pyridin-3-yl}-[1,8]naphthyridine], for which the pIC50 (on GST-ALK5; in assay [1] (setting [2])) was more than 7.00 each time.
As for `Cn1cc(-c2cncc(-c3cc(-c4cc(C(F)(F)F)ccc4F)nc4ncccc34)c2)cn1` [compound 8, 2-(2-Fluoro-5-trifluoromethyl-phenyl)-4-[5-(1-methyl-1H-pyrazol-4-yl)-pyridin-3-yl]-[1,8]naphthyridine], the pIC50 at GST-ALK5 is more than 7.00; in assay [1] (setting [2]), 6.00 to 7.00.
For the molecule `Fc1ccc(Cl)cc1-c1cc(-c2ccnc(-c3ccccc3)c2)c2cccnc2n1` [compound 20, 2-(5-Chloro-2-fluoro-phenyl)-4-(2-phenyl-pyridin-4-yl)-[1,8]naphthyridine], the pIC50 (at GST-ALK5; in assay [1] (setting [2])) was less than 5.00 in each case.
As for `NC(=O)COc1ccc(-c2cncc(-c3cc(-c4cc(Cl)ccc4F)nc4ncccc34)c2)cc1` [compound 138, 2-(4-{5-[2-(5-Chloro-2-fluoro-phenyl)-[1,8]naphthyridin-4-yl]-pyridin-3-yl}-phenoxy)-acetamide], the pIC50 on GST-ALK5 was more than 7.00; in assay [1] (setting [2]), 6.00 to 7.00.
For `Cc1ccn(-c2cc(-c3cncc(-c4ccc(N5CCN(C)CC5)cc4)c3)c3cccnc3n2)n1` [compound 128, 4-{5-[4-(4-Methyl-piperazin-1-yl)-phenyl]-pyridin-3-yl}-2-(3-methyl-pyrazol-1-yl)-[1,8]naphthyridine], in that order: 5.00 to 6.00 and 5.00 to 6.00.
As for `CN1CCN(c2ccc(-c3cncc(-c4cc(-c5ccccc5F)nc5ncccc45)n3)cn2)CC1` [compound 82, 2-(2-Fluoro-phenyl)-4-{6-[6-(4-methyl-piperazin-1-yl)-pyridin-3-yl]-pyrazin-2-yl}-[1,8]naphthyridine], the pIC50 on GST-ALK5 was more than 7.00; in assay [1] (setting [2]), 6.00 to 7.00.
As for `Fc1ccc(C(F)(F)F)cc1-c1cc(-c2cncc(-c3cnn(CCN4CCCC4)c3)c2)c2cccnc2n1` [compound 19, 2-(2-Fluoro-5-trifluoromethyl-phenyl)-4-{5-[1-(2-pyrrolidin-1-yl-ethyl)-1H-pyrazol-4-yl]-pyridin-3-yl}-[1,8]naphthyridine], the pIC50 (on GST-ALK5; in assay [1] (setting [2])) was more than 7.00 throughout.

The values are drawn from patent US8912216B2, “Hetaryl-[1,8]naphthyridine derivatives” (Merck Patent GmbH, priority 2010, dated 2014).
